Values quoted from earlier work, collected in patent US20260335223A1, “Topical Copolymer Formulations for Hydrophobic Drug Delivery” (1376683 B.C. LTD, priority 2023, published 2026).

What was measured:
[1] = background statement; cited from earlier work
[2] = diblock copolymer micelles, background; cited from earlier work

## CC[C@@]1(O)C(=O)OCc2c1cc1n(c2=O)Cc2cc3ccccc3nc2-1 [camptothecin]
[1]
  Water solubility: 1 µg/mL
[2]
  Formation of drug-loaded micelles: do not form drug-loaded micelles
